Earlier results, collected in patent US12377095B2, “Use of ligustrazine nitrone derivatives in treatment and prevention of diabetic complication diseases” (QINGDAO HAILAN PHARMACEUTICALS CO., LTD., priority 2019, dated 2025).
Where two headings read alike, the source gives them in different places.

Legend:
[1] = test system: rats with diabetic nephropathy; settings: rats with diabetic nephropathy induced by streptozotocin; cited from earlier work
[2] = test system: patients with diabetic retinopathy; settings: electronically controlled tetramethylpyrazine ion added to puerarin injection and Zishen Jianpi Huayu Recipe; control group 67.50%; cited from earlier work
[3] = test system: human renal proximal tubule cells; settings: cited from earlier work
[4] = test system: patients with diabetic nephropathy; settings: cited from earlier work
[5] = rabbit, intraperitoneal injection of tetramethylpyrazine hydrochloride; cited from earlier work
[6] = test system: patients with type 2 diabetes with peripheral neuropathy; settings: cited from earlier work
[7] = combined application vs conventional treatment group

Cc1nc(C)c(C)nc1C [tetramethylpyrazine, Tetramethylpyrazine]
blood glucose [1]: down-regulate | renal function [1]: significantly improve | urine protein exclusion [1]: down-regulate | total effective rate [2]: 86.84% | activity against sodium arsenite-induced damage [3]: protective activity | 24 h total urine proteins [4, 7]: reduce | 24 h urinary albumin excretion rate [4, 7]: reduce | 24 h urine protein quantitation [4, 7]: reduce | effect on reduction of blood urea nitrogen [4, 7]: not significant | effect on reduction of diastolic blood pressure [4, 7]: not significant | effect on reduction of systolic blood pressure [4, 7]: not significant | adverse reaction during the use ([4]; tetramethylpyrazine injection, patients with diabetic nephropathy): no indication of serious adverse reaction | entry into retinal tissue [5]: can enter the retinal tissue through the blood-retinal barrier | total effective rate of treatment ([6]; conventional dose injection 80 mg/d): 82.93% | total effective rate of treatment ([6]; injection 360-400 mg/d, intravenous drops, 12 d course): 95%
